In brackets after ≈: the same amount, converted by molar mass. Like-named read-outs stand apart in the source and are kept apart here.
Legend:
[1] = tested on: Wild-type E. fecalis (NR 31975); experiment: MIC against wild-type strain (mutant study); type: cell-based, Enterococcus fecalis
[2] = tested on: fibroblast-like monkey kidney cell line (VERO cell); experiment: In vitro cytotoxicity, MTS assay, VERO cells; type: cell-based; details: at concentration up to 128 μg/mL; tested at 64 and 128 μg/mL; two hours
Protocol: Toxicity assessment: Compounds AS005H, AS005J, AS004B, AS005K, AS005A and 005D were assayed (at concentrations of 64 and 128 μg/mL) against a fibroblast-like monkey kidney cell line (VERO cell) to determine the potential toxic effect in vitro. Briefly, cells were cultured in Minimum Essential Medium (MEM) supplemented with 10% fetal bovine serum (FBS), 1 mM sodium pyruvate, and penicillin-streptomycin at 37° C. with CO2 (5%). Control cells received DMSO alone at a concentration equal to that in drug-treated cell samples. The cells were incubated with the compounds (in triplicate) in a 96-well plate at 37° C. with CO2 (5%) for two hours. The assay reagent MTS 3-(4,5-dimethylthiazol-2-yl)-5-(3-carboxymethoxyphenyl)-2-(4-sulfophenyl)-2H-tetrazolium) (Promega, Madison, WI, USA) was subsequently added and the plate was incubated for four hours. Absorbance readings (at OD490) were taken using a kinetic microplate reader (Molecular Devices, Sunnyvale, CA, USA). The quantity of viable cells after treatment with each compound was expressed as a percentage of the viability of DMSO-treated control cells (average of triplicate wells±standard deviation). The toxicity data was analyzed via a two-way ANOVA, with post hoc Dunnet's multiple comparisons test (P<0.05), utilizing GraphPad Prism 6.0 (GraphPad Software, La Jolla, CA).
Percent viable mammalian cells (measured as average absorbance ratio (test agent relative to DMSO) for cytotoxicity analysis of compounds AS005H, AS005J, AS004B, AS005K, AS005A and 005D (tested in triplicates) at 64 and 128 μg/mL against VERO cells using the MTS 3-(4,5-dimethylthiazol-2-yl)-5-(3-carboxymethoxyphenyl)-2-(4-sulfophenyl)-2H-tetrazolium) assay. Dimethyl sulfoxide (DMSO) was used as a negative control to determine a baseline measurement for the cytotoxic impact of each compound. The absorbance values represent an average of a minimum of three samples analyzed for each compound. Error bars represent standard deviation values for the absorbance values.

[3] = tested on: Enterococcus faecium Patient #2-1-NR-31909; experiment: MIC, broth microdilution in TSB; type: cell-based; details: TSB
Summary of the method: (§1)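 Enterococci are cultured overnight on tryptone soya agar at 37° C under air. A 0.5 McFarland suspension is diluted in broth to about 5×10^5 CFU/mL and exposed to serially diluted compounds.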

[4] = tested on: Enterococcus fecalis Strain SF24413 NR31971; experiment: MIC, broth microdilution in TSB; type: cell-based; details: TSB
Summary of the method: as §1

[5] = tested on: Enterococcus fecalis Strain SF 24397 NR31970; experiment: MIC, broth microdilution in TSB; type: cell-based; details: TSB
Summary of the method: as §1

[6] = tested on: Enterococcus fecalis Strain SF 28073-NR31972; experiment: MIC, broth microdilution in TSB; type: cell-based; details: TSB
Summary of the method: as §1

[7] = tested on: Enterococcus faecalis-S613 HM-334; experiment: MIC in presence of 4% human serum albumin; type: cell-based; details: TSB supplemented with 4% human serum albumin
Protocol: The minimum inhibitory concentrations (MICs) of CAIs were tested against vancomycin resistant Enterococcus faecalis—S613 HM 334 strain as per the guidelines provided by the Clinical and Laboratory Standards Institute (CLSI). The selected strain was streaked on Tryptic Soy Agar (TSA) plate and let grow for 24 hours at 37° C. Afterwards, a bacterial solution equivalent to 0.5 McFarland standard was prepared and diluted in tryptone soy broth (TSB) supplemented with 4% human serum albumin (HAS) to achieve a bacterial concentration of about 5×10^5 CFU/mL and seeded in 96-well well plates. Compounds and control drugs were added in the first row of the 96-well plates and serially diluted along the plates. Plates were then incubated aerobically at 37° C. for 18-20 hours. MICs reported in table (6) are the minimum concentration of the compounds/control drugs that could inhibit completely the visual growth of the bacteria.

[8] = Enterococcus, Table 1, read-out: MIC
[9] = Enterococcus, Table 7, read-out: MIC in TSB
[10] = Enterococcus, Table 4, read-out: MIC
[11] = Enterococcus faecium, Table 1, read-out: MIC
[12] = Enterococcus faecium, Table 7, read-out: MIC in TSB

SMILES	toxicity to VERO cells (percent viable cells relative to DMSO) [2]	MIC [4, 8] [µg/mL]	MIC [4, 9] [µg/mL]	MIC [5, 8] [µg/mL]	MIC [5, 9] [µg/mL]	MIC [6, 8] [µg/mL]	MIC [6, 9] [µg/mL]	MIC [3, 11] [µg/mL]	MIC [3, 12] [µg/mL]	also measured
NS(=O)(=O)c1nnc(NC(=O)CCC2CCCC2)s1 [CAI0015]	non-toxic	–	–	–	–	–	–	–	–	MIC ([1]; Table 4): 0.0625 µg/mL (≈ 0.205 µM); MIC ([3]; Table 1): 0.125 µg/mL (≈ 0.411 µM); MIC in TSB ([3]; Table 7): 0.06 µg/mL (≈ 0.197 µM); MIC ([4]; Table 1): 0.06 µg/mL (≈ 0.197 µM); MIC in TSB ([4]; Table 7): 0.06 µg/mL (≈ 0.197 µM); MIC ([5]; Table 1): 0.125 µg/mL (≈ 0.411 µM); MIC in TSB ([5]; Table 7): 0.06 µg/mL (≈ 0.197 µM); MIC ([6]; Table 1): 0.125 µg/mL (≈ 0.411 µM); MIC in TSB ([6]; Table 7): 0.06 µg/mL (≈ 0.197 µM); MIC [7]: >256 µg/mL
CC(=O)NC[C@H]1CN(c2ccc(N3CCOCC3)c(F)c2)C(=O)O1 [Linezolid, reference compound]	–	1 (≈ 2.96 µM)	1 (≈ 2.96 µM)	1 (≈ 2.96 µM)	1 (≈ 2.96 µM)	1 (≈ 2.96 µM)	1 (≈ 2.96 µM)	–	–	–
CCc1ccc(C(=O)Nc2nnc(S(N)(=O)=O)s2)cc1 [CAI0017, 4-Ethyl-N-(5-sulfamoyl-1,3,4-thiadiazol-2-yl)benzamide]	non-toxic	1 (≈ 3.2 µM)	1 (≈ 3.2 µM)	1 (≈ 3.2 µM)	1 (≈ 3.2 µM)	1 (≈ 3.2 µM)	1 (≈ 3.2 µM)	0.25 (≈ 0.8 µM)	0.25 (≈ 0.8 µM)	MIC [1, 10]: 2 µg/mL (≈ 6.4 µM)
CC(C)=CC(=O)Nc1nnc(S(N)(=O)=O)s1 [CAI0016, 3-Methyl-N-(5-sulfamoyl-1,3,4-thiadiazol-2-yl) but-2-enamide]	non-toxic	–	–	–	–	–	–	–	–	MIC ([1]; Table 4): 1 µg/mL (≈ 3.81 µM); MIC ([3]; Table 1): 0.5 µg/mL (≈ 1.91 µM); MIC in TSB ([3]; Table 7): 0.25 µg/mL (≈ 0.953 µM); MIC ([4]; Table 1): 0.5 µg/mL (≈ 1.91 µM); MIC in TSB ([4]; Table 7): 0.5 µg/mL (≈ 1.91 µM); MIC ([5]; Table 1): 0.5 µg/mL (≈ 1.91 µM); MIC in TSB ([5]; Table 7): 0.25 µg/mL (≈ 0.953 µM); MIC ([6]; Table 1): 0.5 µg/mL (≈ 1.91 µM); MIC in TSB ([6]; Table 7): 0.5 µg/mL (≈ 1.91 µM); MIC [7]: >256 µg/mL
CC(C)C(=O)Nc1nnc(S(N)(=O)=O)s1 [CAI0011, N-(5-Sulfamoyl-1,3,4-thiadiazol-2-yl) isobutyramide]	non-toxic	2 (≈ 7.99 µM)	2 (≈ 7.99 µM)	2 (≈ 7.99 µM)	2 (≈ 7.99 µM)	2 (≈ 7.99 µM)	2 (≈ 7.99 µM)	1 (≈ 4 µM)	1 (≈ 4 µM)	–
CC(=O)Nc1nnc(S(N)(=O)=O)s1 [Acetazolamide, reference compound]	–	4 (≈ 18 µM)	4 (≈ 18 µM)	2 (≈ 9 µM)	2 (≈ 9 µM)	4 (≈ 18 µM)	4 (≈ 18 µM)	2 (≈ 9 µM)	2 (≈ 9 µM)	MIC ([7]; Enterococcus, read-out: MIC): > 256 µg/mL
CC(C)(C)C(=O)Nc1nnc(S(N)(=O)=O)s1 [CAI0010, N-(5-Sulfamoyl-1,3,4-thiadiazol-2-yl) pivalamide]	non-toxic	0.5 (≈ 1.89 µM)	0.25 (≈ 0.946 µM)	0.5 (≈ 1.89 µM)	0.25 (≈ 0.946 µM)	0.5 (≈ 1.89 µM)	0.5 (≈ 1.89 µM)	0.5 (≈ 1.89 µM)	0.125 (≈ 0.473 µM)	MIC [1, 10]: 0.5 µg/mL (≈ 1.89 µM); MIC ([7]; Enterococcus, read-out: MIC): > 256 µg/mL
